# From patent US20060069132A1, “Azolecarboxamide herbicides” (priority 2004, published 2006)
# Columns and labels:
# [1] = system: early watergrass; assay: Test D flooded paddy test; type: in vivo, Echinochloa oryzoides; conditions: 21 days, scale 0 to 100
# Source text: (§1) Three plastic pots (ca. 16-cm diameter) per rate were partially filled with sterilized Tama silt loam soil comprising a 35:50:15 ratio of sand, silt and clay and 2.6% organic matter. Separate plantings for each of the three pots were as follows. Seeds from the U.S. of ducksalad (Heteranthera limosa (Sw.) Willd.), smallflower umbrella sedge (Cyperus difformis L.) and purple redstem (Ammannia coccinea Rottb.), were planted into one 16-cm pot for each rate. Seeds from the U.S. of rice flatsedge (Cyperus iria L.), bearded sprangletop (Leptochloa fascicularis (Lam.) Gray), one stand of 9 or 10 water seeded rice seedlings (Oryza sativa L. cv. ‘Japonica—M202’), and one stand of 6 transplanted rice seedlings (Oryza sativa L. cv. ‘Japonica—M202’) were planted into one 16-cm pot for each rate. Seeds from the U.S. of barnyardgrass (Echinochloa crus-galli (L.) Beauv.), late watergrass (Echinochloa oryzicola Vasinger), early watergrass (Echinochloa oryzoides (Ard.) Fritsch) and junglerice (Echinochloa colona (L.) Link) were planted into one 16-cm pot for each rate. Plantings were sequential so that crop and weed species were at the 2.0 to 2.5-leaf stage at time of treatment.
# (§2) Potted plants were grown in a greenhouse with day/night temperature settings of 29.5/26.7° C., and supplemental balanced lighting was provided to maintain a 16-hour photoperiod. Test pots were maintained in the greenhouse until test completion.
# (§3) At time of treatment, test pots were flooded to 3 cm above the soil surface, treated by application of test compounds directly to the paddy water, and then maintained at that water depth for the duration of the test. Effects of treatments on rice and weeds were visually evaluated by comparison to untreated controls after 21 days. Plant response ratings are reported on a 0 to 100 scale; where 0 is no effect and 100 is complete control. A dash (-) response means no test result.
# [2] = system: water seeded rice seedlings; assay: Test D flooded paddy test; type: in vivo, Oryza sativa; conditions: 21 days, scale 0 to 100
# Source text: as §1, §2, §3
# [3] = system: transplanted rice seedlings; assay: Test D flooded paddy test; type: in vivo, Oryza sativa; conditions: 21 days, scale 0 to 100
# Source text: as §1, §2, §3
# [4] = system: purple redstem; assay: Test D flooded paddy test; type: in vivo, Ammannia coccinea; conditions: 21 days, scale 0 to 100
# Source text: as §1, §2, §3
# [5] = system: smallflower umbrella sedge; assay: Test D flooded paddy test; type: in vivo, Cyperus difformis; conditions: 21 days, scale 0 to 100
# Source text: as §1, §2, §3
# [6] = system: barnyardgrass; assay: Test D flooded paddy test; type: in vivo, Echinochloa crus-galli; conditions: 21 days, scale 0 to 100
# Source text: as §1, §2, §3
# [7] = system: rice flatsedge; assay: Test D flooded paddy test; type: in vivo, Cyperus iria; conditions: 21 days, scale 0 to 100
# Source text: as §1, §2, §3
# [8] = system: late watergrass; assay: Test D flooded paddy test; type: in vivo, Echinochloa oryzicola; conditions: 21 days, scale 0 to 100
# Source text: as §1, §2, §3
# [9] = system: hairy beggarticks; assay: Test E pre-/postemergence herbicide test; type: in vivo, Bidens radiata; conditions: Preemergence
# Source text: Seeds of plant species selected from bipinnate beggarticks (Bidens bipinnata L.), hairy beggarticks (Bidens radiata Thuill.), bermudagrass (Cynodon dactylon (L.) Pers.), Surinam grass (Urochloa decumbens (Staph) R. D. Webster, previously named Brachiaria decumbens Stapf), large crabgrass (Digitaria sanguinalis (L.) Scop.), green foxtail (Setaria viridis (L.) P. Beauv.), goosegrass (Eleusine indica (L.) Gaertn.), johnsongrass (Sorghum halepense (L.) Pers.), kochia (Kochia scoparia (L.) Schrad.), pitted morningglory (Ipomoea lacunosa L.), purple nutsedge (Cyperus rotundus L.), common ragweed (Ambrosia elatior L.), mustard (Brassica nigra (L.) W. D. J. Koch), guineagrass (Panicum maximum Jacq.), dallisgrass (Paspalum dilatatum Poir.), barnyardgrass (Echinochloa crus-galli (L). P. Beauv.), southern sandbur (Cenchrus echinatus L.), common sowthistle (Sonchus oleraceous L.), prickly sida (Sida spinosa L.), Italian ryegrass (Lolium multiflorum Lam.), common purslane (Portulaca oleracea L.), broadleaf signalgrass (Brachiaria platyphylla (Griseb.) Nash), common groundsel (Senecio vulgaris L.), common chickweed (Stellaria media (L.) Vill/Cyr.), tropical spiderwort (Commelina benghalensis L.), annual bluegrass (Poa annua L.), downy bromegrass (Bromus tectorum L.), itchgrass (Rottboellia cochinchinensis (L.) L.f.), quackgrass (Elytrigia repens (L.) Nevski), Canada horseweed (Erigeron Canadensis L.), field bindweed (Convolvulus arvensis L.), spotted spurge (Euphorbia maculata L.), common mallow (Malva sylvestris (=s silvestris) L.), and Russian thistle (Salsola kali L. ssp. Ruthenica (Iljin) Soo) were planted and treated preemergence with test chemicals formulated in a non-phytotoxic solvent mixture which included a surfactant.
# At the same time, plants selected from these weed species were treated with postemergence applications of some of the test chemicals formulated in the same manner. Plants ranged in height from 2 to 18 cm (1- to 4-leaf stage) for postemergence treatments. Treated plants and controls were maintained in a greenhouse for 12 to 14 days, after which time all species were compared to controls and visually evaluated. Plant response ratings, summarized in Table E, are based on a scale of 0 to 100 where 0 is no effect and 100 is complete control. A dash (-) response means no test result.
compound,measurement,setting,value
CCn1nc(C(C)(C)C)cc1C(=O)Nc1cc(C(=O)NCC2CC2)ccn1 [Compound 155],"Plant response rating, Watergrass, Early",[1]; 32 g ai/ha,0
same,"Plant response rating, Watergrass, Early",[1]; 64 g ai/ha,0
same,"Plant response rating, Watergrass, Early",[1]; 125 g ai/ha,25
same,"Plant response rating, Watergrass, Early",[1]; 250 g ai/ha,35
same,"Plant response rating, Watergrass, Early",[1]; 500 g ai/ha,70
same,"Plant response rating, Rice, Water Seeded",[2]; 32 g ai/ha,0
same,"Plant response rating, Rice, Water Seeded",[2]; 64 g ai/ha,0
same,"Plant response rating, Rice, Water Seeded",[2]; 125 g ai/ha,25
same,"Plant response rating, Rice, Water Seeded",[2]; 250 g ai/ha,35
same,"Plant response rating, Rice, Water Seeded",[2]; 500 g ai/ha,40
same,"Plant response rating, Rice, Transplanted",[3]; 32 g ai/ha,0
same,"Plant response rating, Rice, Transplanted",[3]; 64 g ai/ha,0
same,"Plant response rating, Rice, Transplanted",[3]; 125 g ai/ha,20
same,"Plant response rating, Rice, Transplanted",[3]; 250 g ai/ha,30
same,"Plant response rating, Rice, Transplanted",[3]; 500 g ai/ha,30
same,"Plant response rating, Redstem",[4]; 32 g ai/ha,0
same,"Plant response rating, Redstem",[4]; 64 g ai/ha,0
same,"Plant response rating, Redstem",[4]; 125 g ai/ha,0
same,"Plant response rating, Redstem",[4]; 250 g ai/ha,95
same,"Plant response rating, Redstem",[4]; 500 g ai/ha,95
same,"Plant response rating, Sedge, Umbrella",[5]; 32 g ai/ha,30
same,"Plant response rating, Sedge, Umbrella",[5]; 64 g ai/ha,65
same,"Plant response rating, Sedge, Umbrella",[5]; 125 g ai/ha,75
same,"Plant response rating, Sedge, Umbrella",[5]; 250 g ai/ha,75
same,"Plant response rating, Sedge, Umbrella",[5]; 500 g ai/ha,80
same,"Plant response rating, Barnyardgrass",[6]; 32 g ai/ha,0
same,"Plant response rating, Barnyardgrass",[6]; 64 g ai/ha,0
same,"Plant response rating, Barnyardgrass",[6]; 125 g ai/ha,20
same,"Plant response rating, Barnyardgrass",[6]; 250 g ai/ha,35
same,"Plant response rating, Barnyardgrass",[6]; 500 g ai/ha,80
same,"Plant response rating, Flatsedge, Rice",[7]; 32 g ai/ha,0
same,"Plant response rating, Flatsedge, Rice",[7]; 64 g ai/ha,0
same,"Plant response rating, Flatsedge, Rice",[7]; 125 g ai/ha,30
same,"Plant response rating, Flatsedge, Rice",[7]; 250 g ai/ha,60
same,"Plant response rating, Flatsedge, Rice",[7]; 500 g ai/ha,70
same,"Plant response rating, Watergrass, Late",[8]; 32 g ai/ha,0
same,"Plant response rating, Watergrass, Late",[8]; 64 g ai/ha,0
same,"Plant response rating, Watergrass, Late",[8]; 125 g ai/ha,20
same,"Plant response rating, Watergrass, Late",[8]; 250 g ai/ha,30
same,"Plant response rating, Watergrass, Late",[8]; 500 g ai/ha,60
"CCN1N=C(C(C)(C)C)CC1C(=O)Nc1cc(C(=O)N(C)C)ccc1F (centres unmarked) [Compound 268, N-[5-[(dimethylamino)carbonyl]-2-fluorophenyl]-3-(1,1-dimethylethyl)-1-ethyl-4,5-dihydro-1H-pyrazole-5-carboxamide]","Plant response rating, Beggarticks, Hairy","[9]; 62 g ai/ha, scale 0 to 100",40
same,"Plant response rating, Beggarticks, Hairy","[9]; 125 g ai/ha, scale 0 to 100",95
same,"Plant response rating, Beggarticks, Hairy","[9]; 250 g ai/ha, scale 0 (no effect) to 100 (complete control)",100
same,"Plant response rating, Beggarticks, Hairy","[9]; 500 g ai/ha, scale 0 (no effect) to 100 (complete control)",100
